Source: US7772241B2, “Variolin derivatives and their use as antitumor agents” (Pharma Mar S.A., priority 2001, dated 2010)
Read-outs that look alike come from different tables or passages of the source.

Key:
[1] = tested on: LoVo; test: Inhibition of cells growth by colorimetric (SRB) assay, LoVo; conditions: for GI50 / CC50: Homo sapiens, LoVo, 48 h; for GI50: read-out: GI50 LOVO, SRB assay, 48 hours exposure; for CC50: read-out: LC50 LOVO, SRB assay, 48 hours exposure; for TGI LOVO: SRB assay, 48 hours exposure
How it was run: (§1)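 Human tumour cells seeded at 5×10^3/well in RPMI 1640 10% FBS, attached 18 h, then exposed 48 h to samples at 10 to 10^−8 μg/ml in DMSO/EtOH/PBS (0.5:0.5:99). Growth read by SRB staining after TCA fixation, OD 490 nm, triplicate wells; GI, TGI and LC derived.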

[2] = tested on: SK-OV-3; test: Inhibition of cells growth by colorimetric (SRB) assay, SK-OV-3; conditions: for CC50: read-out: LC50 SKOV-3, SRB assay, 48 hours exposure
How it was run: as §1

[3] = tested on: A-549; test: Inhibition of cells growth by colorimetric (SRB) assay, A-549
How it was run: as §1

[4] = tested on: DU-145; test: Inhibition of cells growth by colorimetric (SRB) assay, DU-145; conditions: for GI50: read-out: GI50 DU-145, SRB assay, 48 hours exposure
How it was run: as §1

[5] = tested on: SK-MEL-28; test: Inhibition of cells growth by colorimetric (SRB) assay, SK-MEL-28; conditions: for GI50 / CC50: Homo sapiens, SK-MEL-28, 48 h; for GI50: read-out: GI50 MEL-28, SRB assay, 48 hours exposure; for CC50: read-out: LC50 MEL-28, SRB assay, 48 hours exposure; for TGI MEL-28: SRB assay, 48 hours exposure
How it was run: as §1

[6] = tested on: IGROV-ET; test: Inhibition of cells growth by colorimetric (SRB) assay, IGROV-ET; conditions: for CC50: read-out: LC50 IGROV-ET, SRB assay, 48 hours exposure
How it was run: as §1

[7] = Inhibition of cells growth by colorimetric (SRB) assay, HMEC1; conditions: human, HMEC1 cells, LC50 H-MEC-1, SRB assay, 48 hours exposure
[8] = tested on: HMEC1; test: as above; conditions: for TGI H-MEC-1: in M (unit assumed)
[9] = tested on: LNCaP; test: Inhibition of cells growth by colorimetric (SRB) assay, LNCaP
How it was run: as §1

[10] = tested on: SK-BR-3; test: Inhibition of cells growth by colorimetric (SRB) assay, SK-BR-3; conditions: for GI50: read-out: GI50 SK-BR-3, SRB assay, 48 hours exposure
How it was run: as §1

[11] = tested on: IGROV-1; test: Inhibition of cells growth by colorimetric (SRB) assay, IGROV-1
How it was run: as §1

[12] = tested on: PANC-1; test: Inhibition of cells growth by colorimetric (SRB) assay, PANC-1; conditions: for GI50 / CC50: Homo sapiens, PANC-1, 48 h; for GI50: read-out: GI50 PANC-1, SRB assay, 48 hours exposure; for CC50: read-out: LC50 PANC-1, SRB assay, 48 hours exposure; for TGI PANC-1: SRB assay, 48 hours exposure
How it was run: as §1

[13] = tested on: K-562; test: Inhibition of cells growth by colorimetric (SRB) assay, K-562
How it was run: as §1

[14] = tested on: LoVo-Dox; test: Inhibition of cells growth by colorimetric (SRB) assay, LoVo-Dox; conditions: for GI50 / CC50: Homo sapiens, 48 h; for GI50: read-out: GI50 LOVO-DOX, SRB assay, 48 hours exposure; for CC50: read-out: LC50 LOVO-DOX, SRB assay, 48 hours exposure; for TGI LOVO-DOX: SRB assay, 48 hours exposure
How it was run: as §1

[15] = tested on: HT-29; test: Inhibition of cells growth by colorimetric (SRB) assay, HT-29; conditions: for GI50 / CC50: Homo sapiens, HT-29, 48 h; for GI50: read-out: GI50 HT-29, SRB assay, 48 hours exposure; for CC50: read-out: LC50 HT-29, SRB assay, 48 hours exposure; for TGI HT-29: SRB assay, 48 hours exposure
How it was run: as §1

[16] = Homo sapiens, SK-OV-3, 48 h, read-out: GI50 SKOV-3, SRB assay, 48 hours exposure
[17] = Homo sapiens, A549, 48 h, read-out: GI50 A-549, SRB assay, 48 hours exposure
[18] = Homo sapiens, A549, 48 h, read-out: LC50 A-549, SRB assay, 48 hours exposure
[19] = Homo sapiens, DU-145, 48 h, read-out: LC50 DU-145, SRB assay, 48 hours exposure
[20] = Homo sapiens, 48 h, read-out: GI50 IGROV-ET, SRB assay, 48 hours exposure
[21] = Homo sapiens, HMEC-1, 48 h, read-out: GI50 H-MEC-1, SRB assay, 48 hours exposure
[22] = Homo sapiens, LNCaP, 48 h, read-out: GI50 LN-caP, SRB assay, 48 hours exposure
[23] = Homo sapiens, LNCaP, 48 h, read-out: LC50 LN-caP, SRB assay, 48 hours exposure
[24] = Homo sapiens, SK-BR-3, 48 h, read-out: LC50 SK-BR-3, SRB assay, 48 hours exposure
[25] = Homo sapiens, IGROV-1, 48 h, read-out: GI50 IGROV, SRB assay, 48 hours exposure
[26] = Homo sapiens, IGROV-1, 48 h, read-out: LC50 IGROV, SRB assay, 48 hours exposure
[27] = Homo sapiens, K562, 48 h, read-out: GI50 K-562, SRB assay, 48 hours exposure
[28] = Homo sapiens, K562, 48 h, read-out: LC50 K-562, SRB assay, 48 hours exposure

## CSc1nccc2c(-c3cccs3)c3cccnc3n12 [Compound 60]
[1]
  GI50: ≥ 33.6 µM
  CC50: ≥ 33.6 µM
  TGI LOVO: 3.36E−05
[2]; [16]
  GI50: ≥ 33.6 µM
[2]; Homo sapiens, SK-OV-3, 48 h
  CC50: ≥ 33.6 µM
[2]; SRB assay, 48 hours exposure
  TGI SKOV-3: 3.36E−05
[3]; [17]
  GI50: 22.6 µM
[3]; [18]
  CC50: ≥ 33.6 µM
[3]; SRB assay, 48 hours exposure
  TGI A-549: 3.36E−05
[4]; Homo sapiens, DU-145, 48 h
  GI50: ≥ 33.6 µM
[4]; [19]
  CC50: ≥ 33.6 µM
[4]; SRB assay, 48 hours exposure
  TGI DU-145: 3.36E−05
[5]
  GI50: ≥ 33.6 µM
  CC50: ≥ 33.6 µM
  TGI MEL-28: 3.36E−05
[6]; [20]
  GI50: ≥ 33.6 µM
[6]; Homo sapiens, 48 h
  CC50: ≥ 33.6 µM
[6]; SRB assay, 48 hours exposure
  TGI IGROV-ET: 3.36E−05
[7]
  CC50 at 48 h: ≥ 33.6 µM
[8]; [21]
  GI50: 22.6 µM
[8]; SRB assay, 48 hours exposure
  TGI H-MEC-1: 3.36E−05
[9]; [22]
  GI50: ≥ 33.6 µM
[9]; [23]
  CC50: ≥ 33.6 µM
[9]; SRB assay, 48 hours exposure
  TGI LN-caP: 3.36E−05
[10]; Homo sapiens, SK-BR-3, 48 h
  GI50: 0.24 µM
[10]; [24]
  CC50: 3.36 µM
[10]; SRB assay, 48 hours exposure
  TGI SK-BR-3: 9.95E−07
[11]; [25]
  GI50: 10.8 µM
[11]; [26]
  CC50: ≥ 33.6 µM
[11]; SRB assay, 48 hours exposure
  TGI IGROV: 3.36E−05
[12]
  GI50: ≥ 33.6 µM
  CC50: ≥ 33.6 µM
  TGI PANC-1: 3.36E−05
[13]; [27]
  GI50: ≥ 33.6 µM
[13]; [28]
  CC50: ≥ 33.6 µM
[13]; SRB assay, 48 hours exposure
  TGI K-562: 3.36E−05
[14]
  GI50: ≥ 33.6 µM
  CC50: ≥ 33.6 µM
  TGI LOVO-DOX: 3.36E−05
[15]
  GI50: ≥ 33.6 µM
  CC50: ≥ 33.6 µM
  TGI HT-29: 3.36E−05

## Nc1nccc2c(-c3cccs3)c3cccnc3n12 [Compound 65]
[1]
  GI50: ≥ 37.5 µM
  CC50: ≥ 37.5 µM
  TGI LOVO: 3.75E−05
[2]; [16]
  GI50: ≥ 37.5 µM
[2]; Homo sapiens, SK-OV-3, 48 h
  CC50: ≥ 37.5 µM
[2]; SRB assay, 48 hours exposure
  TGI SKOV-3: 3.75E−05
[3]; [17]
  GI50: 26.4 µM
[3]; [18]
  CC50: ≥ 37.5 µM
[3]; SRB assay, 48 hours exposure
  TGI A-549: 3.75E−05
[4]; Homo sapiens, DU-145, 48 h
  GI50: ≥ 37.5 µM
[4]; [19]
  CC50: ≥ 37.5 µM
[4]; SRB assay, 48 hours exposure
  TGI DU-145: 3.75E−05
[5]
  GI50: ≥ 37.5 µM
  CC50: ≥ 37.5 µM
  TGI MEL-28: 3.75E−05
[6]; [20]
  GI50: ≥ 37.5 µM
[6]; Homo sapiens, 48 h
  CC50: ≥ 37.5 µM
[6]; SRB assay, 48 hours exposure
  TGI IGROV-ET: 3.75E−05
[7]
  CC50 at 48 h: ≥ 37.5 µM
[8]; [21]
  GI50: 11.8 µM
[8]; SRB assay, 48 hours exposure
  TGI H-MEC-1: 3.75E−05
[9]; [22]
  GI50: 17.1 µM
[9]; [23]
  CC50: ≥ 37.5 µM
[9]; SRB assay, 48 hours exposure
  TGI LN-caP: 3.75E−05
[10]; Homo sapiens, SK-BR-3, 48 h
  GI50: 1.46 µM
[10]; [24]
  CC50: ≥ 37.5 µM
[10]; SRB assay, 48 hours exposure
  TGI SK-BR-3: 3.75E−05
[11]; [25]
  GI50: ≥ 37.5 µM
[11]; [26]
  CC50: ≥ 37.5 µM
[11]; SRB assay, 48 hours exposure
  TGI IGROV: 3.75E−05
[12]
  GI50: ≥ 37.5 µM
  CC50: ≥ 37.5 µM
  TGI PANC-1: 3.75E−05
[13]; [27]
  GI50: ≥ 37.5 µM
[13]; [28]
  CC50: ≥ 37.5 µM
[13]; SRB assay, 48 hours exposure
  TGI K-562: 3.75E−05
[14]
  GI50: ≥ 37.5 µM
  CC50: ≥ 37.5 µM
  TGI LOVO-DOX: 3.75E−05
[15]
  GI50: ≥ 37.5 µM
  CC50: ≥ 37.5 µM
  TGI HT-29: 3.75E−05

## COc1nccc(-c2c3cccnc3n3c(N)nccc23)n1.Cl [Compound 81]
[1]
  GI50: 0.224 µM
  CC50: ≥ 30.4 µM
  TGI LOVO: 1.77E−06
[2]; Homo sapiens, SK-OV-3, 48 h
  CC50: 34.5 µM
[2]; SRB assay, 48 hours exposure
  TGI SKOV-3: 8.52E−06
[2]; read-out: GI50 SKOV-3, SRB assay, 48 hours exposure
  GI50: 0.797 µM
[3]; SRB assay, 48 hours exposure
  TGI A-549: 3.04E−05
[3]; read-out: GI50 A-549, SRB assay, 48 hours exposure
  GI50: ≥ 30.4 µM
[3]; read-out: LC50 A-549, SRB assay, 48 hours exposure
  CC50: ≥ 30.4 µM
[4]; Homo sapiens, DU-145, 48 h
  GI50: 0.928 µM
[4]; SRB assay, 48 hours exposure
  TGI DU-145: 2.40E−06
[4]; read-out: LC50 DU-145, SRB assay, 48 hours exposure
  CC50: > 30.4 µM
[5]
  GI50: 0.313 µM
  CC50: 1.74 µM
  TGI MEL-28: 7.36E−07
[6]; Homo sapiens, 48 h
  CC50: ≥ 30.4 µM
[6]; SRB assay, 48 hours exposure
  TGI IGROV-ET: 2.28E−07
[6]; read-out: GI50 IGROV-ET, SRB assay, 48 hours exposure
  GI50: 0.0855 µM
[7]
  CC50 at 48 h: 0.858 µM
[8]; SRB assay, 48 hours exposure
  TGI H-MEC-1: 2.62E−07
[8]; read-out: GI50 H-MEC-1, SRB assay, 48 hours exposure
  GI50: 0.171 µM
[9]; SRB assay, 48 hours exposure
  TGI LN-caP: 2.61E−07
[9]; read-out: GI50 LN-caP, SRB assay, 48 hours exposure
  GI50: 0.158 µM
[9]; read-out: LC50 LN-caP, SRB assay, 48 hours exposure
  CC50: 2.77 µM
[10]; Homo sapiens, SK-BR-3, 48 h
  GI50: 0.855 µM
[10]; SRB assay, 48 hours exposure
  TGI SK-BR-3: 2.26E−06
[10]; read-out: LC50 SK-BR-3, SRB assay, 48 hours exposure
  CC50: 9.49 µM
[11]; SRB assay, 48 hours exposure
  TGI IGROV: 2.70E−06
[11]; read-out: GI50 IGROV, SRB assay, 48 hours exposure
  GI50: 0.21 µM
[11]; read-out: LC50 IGROV, SRB assay, 48 hours exposure
  CC50: 20.5 µM
[12]
  GI50: 1 µM
  CC50: ≥ 30.4 µM
  TGI PANC-1: 2.86E−06
[13]; SRB assay, 48 hours exposure
  TGI K-562: 3.29E−07
[13]; read-out: GI50 K-562, SRB assay, 48 hours exposure
  GI50: 0.0791 µM
[13]; read-out: LC50 K-562, SRB assay, 48 hours exposure
  CC50: 0.523 µM
[14]
  GI50: 0.706 µM
  CC50: ≥ 30.4 µM
  TGI LOVO-DOX: 3.04E−06
[15]
  GI50: 1.3 µM
  CC50: ≥ 30.4 µM
  TGI HT-29: 3.04E−05
